Values of other authors as cited in patent US20050089572A1, “Controlled release drug delivery system of pravastatin” (priority 2002, published 2005).

Conditions: pH 3 or less as found in the stomach; degrades to lactone and 3-α-hydroxy-isopravastatin

In the case of `CC[C@H](C)C(=O)O[C@H]1C[C@H](O)C=C2C=C[C@H](C)[C@H](CC[C@@H](O)C[C@@H](O)CC(=O)O)[C@H]21` [Pravastatin sodium, (+)-(3R, 5R)-3,5-dihydroxy-7-[(1S,2S,6S,8S,8aR)-6-hydroxy-2-methyl-8-[(S)-2-methylbutyryloxy]-1,2,6,7,8,8a-hexahydro-1-naphthyl] heptanoate], the “stability at low pH” value is given as “very unstable”.
